Test results published in PMC9332470, “Production and Selection of Antibody–Antigen Pairs for the Development of Immunoenzyme Assay and Lateral Flow Immunoassay Methods for Carbofuran and Its Analogues” (Biosensors, 2022).
Values after ≈ are worked out from the molar mass of the structure shown.

How the values were obtained:
mAb 13C8 [1] = experiment: indirect competitive ELISA (icELISA) with mAb 13C8; assay type: binding, BALB/c mice; conditions: for IC50 (ELISA): optimized ELISA, mAb 13C8 0.03 μg/mL, coating antigen 0.1 μg/mL, given as MDA-BSA and MDA-OVA, unit from text
Description: (§1) Microplates were coated with coating antigens. Different concentrations of the standard (50 µL) and the mAb (50 µL) were added to each well, and the plates were incubated for 20 min at 37 °C. The plates were washed with PBS (0.01 M, containing 0.05% (v/v) Triton X-100), 100 μL of goat anti-mouse IgG-HRP conjugate solution was added to each well, and the plates were incubated for 20 min at 37 °C. After the plates were washed with PBS (0.01 M, containing 0.05% Triton X-100, v/v), 100 µL of TMB single-component substrate solution was added to each well, followed by incubation at 37 °C for 10 min. Finally, the reaction was terminated, and the absorbance at 450 nm was measured by a microplate reader.
(§2) Taking the logarithm of the carbofuran concentration as the abscissa and (B/B0)% as the ordinate, the standard curves for ELISA and QD-LFIA were obtained based on the Morgan–Mercer–Flodin (MMF) model, which were fitted by CurveExpert 1.4.0 software (https://www.curveexpert.net, accessed on 15 July 2022). For the ELISA method, B and B0 are the absorbance of the sample well and blank well, respectively. For the QD-LFIA method, B and B0 are the T/C (fluorescence intensity of the test line/fluorescence intensity of the control line) of the sample and blank control, respectively.
(§3) The inhibition ratio (I%) was calculated as (B0-B)/B0 × 100%. IC50 is the concentration of the carbofuran at an I% of 50%, and the limit of detection (LOD) was determined as the concentration showing 10% of inhibition.
(§4) The cross-reactivities (CRs) of benfuracarb, carbosulfan, 3-hydroxy-carbofuran, metolcarb, carbaryl, isoprocarb and aldicarb with carbofuran were assessed by ELISA and QD-LFIA. CR was calculated as CR (%) = [IC50 (carbofuran)/IC50 (analogues)] × 100%.
The microplate was coated with the coating antigens DDB-BSA (1 µg/mL), DDB-OVA (0.5 µg/mL), MDA-BSA (0.2 µg/mL) and MDA-OVA (0.1 µg/mL), and the concentration of mAb 13C8 was 0.03 µg/mL. Carbofuran standards (0, 0.05, 0.15, 0.45, 1.35 and 4.05 ng/mL) were detected to obtain a standard curve, and the IC50 was calculated. […] In the icELISA used in this study, free antigen (carbofuran) in solution competed with the coating antigen on the microplate for antibody 13C8; therefore, the IC50 value was negatively correlated with the antibody-binding ability of free antigen competing with coating antigens.
The ELISA method was developed with the antibody 13C8–antigen MDA-BSA pair. Under the optimized coating antigen concentration (0.1 μg/mL), HRP-conjugated goat anti-mouse IgG concentration (1 μg/mL), antibody concentration (0.03 μg/mL) and working buffer parameters (5 mM PBS at pH 7.4), a standard curve was obtained with the concentration of carbofuran on the abscissa and the inhibition ratio (B/B0) on the ordinate.

mAb 13C8 [2] = experiment: quantum dot-based LFIA (QD-LFIA) with mAb 13C8; assay type: binding, BALB/c mice; conditions: for IC50 (QD-LFIA): optimized QD-LFIA, mAb 13C8-QD, T line antigen 30 μg/mL, given as MDA-BSA and MDA-OVA
Description: One milliliter of QDs was added to 9 mL of MES (0.054 M at pH 6.0) and centrifuged at 10,956× g for 20 min. Then, the precipitate was resuspended in 10 mL of MES (0.05 M at pH 6.0). After dispersion by ultrasonication for 2 min, EDC (20 mg) and NHS (20 mg) were added, and the reaction mixture was incubated for 30 min, followed by centrifugation at 10,956× g for 20 min. The precipitate was resuspended in 10 mL of MES (0.05 M at pH 6.0). Then, 1 mg of the mAb dissolved in 10 mL MES (0.027 M at pH 8.0) was added to the QD mixture and shaken at 25 °C and 180 rpm for 90 min. After the reaction, 5 mL of MES (0.054 M at pH 6.0 containing 1.6% BSA, w/v) was added, and the mixture was shaken at 25 °C and 180 rpm for 40 min, followed by centrifugation at 10,956× g for 20 min. The precipitate was resuspended in 10 mL of PB (0.01 M at pH 6.0, containing 5% casein, 1% glucose, 1.5% alanine and 0.05% NaN3, w/v) and dispersed by ultrasonication for 2 min.
The conjugate pad (6 mm × 300 mm) was pretreated with PBS (containing 0.5% Triton X-100, 0.5% alanine and 0.05% NaN3, w/v). Then, 1 mL of the mAb–QD conjugate was sprayed onto the pretreated conjugate pad at a flow rate of 10 μL/cm, and the pad was dried at 37 °C for 2 h. Other applied protocols were similar to those mentioned above.
as §2, §3, §4
Then, to prepare QD-LFIA test strips, DDB-BSA (40 μg/mL), DDB-OVA (50 μg/mL), MDA-BSA (35 μg/mL) and MDA-OVA (30 μg/mL) were dispensed onto the NC membrane, and antibody 13C8 was conjugated to the QDs. Carbofuran standards (0, 0.05, 0.15, 0.45, 1.35 and 4.05 ng/mL) were detected to obtain a standard curve, and the IC50 was calculated. […] In LFIA, carbofuran in solution competed with the coating antigen on the NC membrane for antibody 13C8 conjugated to the QDs.
A standard curve was developed with the inhibition ratio (B/B0) versus the logarithm of the concentration of carbofuran.

[3] = tested on: mAb with the immunogen 3-succinyl-carbofuran-KLH; conditions: cited from earlier work
[4] = tested on: broad-specificity mAb with the immunogen BFNB-BSA; conditions: cited from earlier work
mAb 18G3 = experiment: ELISA reactivity of hybridoma supernatant, cell line 18G3; assay type: binding, BALB/c mice; conditions: cell line 18G3 supernatant, 50 ng/mL pesticide
Description: (§5) The desired antibodies with the highest affinity were screened by icELISA with carbofuran as a competitive compound, and hybridoma cells were cloned by the limited dilution method. Then, the selected hybridoma cells were injected into mice for ascites production. Finally, the mAbs were purified by (NH4)2SO4 with saturation of 50% and further purified by an SPA column.
as §1, §3
(§6) Then, the reactivity of the supernatant of the six cell lines to 50 ng/mL carbofuran, benfuracarb and carbosulfan was assessed by ELISA, and the results are shown in Table 1. […] Because 13C8 had the highest reactivity with carbofuran, benfuracarb and carbosulfan among the six cell lines, it was injected into mice for ascites production, and the mAbs were purified by a protein A column for further experiments.

mAb 13C8 [5] = experiment: ELISA reactivity of hybridoma supernatant, cell line 13C8; assay type: binding, BALB/c mice; conditions: cell line 13C8 supernatant, 50 ng/mL pesticide
Description: as §5, §1, §3, §6

mAb 12D6 = experiment: ELISA reactivity of hybridoma supernatant, cell line 12D6; assay type: binding, BALB/c mice; conditions: cell line 12D6 supernatant, 50 ng/mL pesticide
Description: as §5, §1, §3, §6

mAb 12H5 = experiment: ELISA reactivity of hybridoma supernatant, cell line 12H5; assay type: binding, BALB/c mice; conditions: cell line 12H5 supernatant, 50 ng/mL pesticide
Description: as §5, §1, §3, §6

mAb 6D6 = experiment: ELISA reactivity of hybridoma supernatant, cell line 6D6; assay type: binding, BALB/c mice; conditions: cell line 6D6 supernatant, 50 ng/mL pesticide
Description: as §5, §1, §3, §6

mAb 7F9 = experiment: ELISA reactivity of hybridoma supernatant, cell line 7F9; assay type: binding, BALB/c mice; conditions: cell line 7F9 supernatant, 50 ng/mL pesticide
Description: as §5, §1, §3, §6

Compound | IC50 (ELISA) (mAb 13C8 [1]) [µg/mL] | IC50 (QD-LFIA) (mAb 13C8 [2]) [µg/mL] | CR(%) (ic-ELISA) [4] | IC50 (ic-ELISA) [4] [µg/mL] | further results
CNC(=O)Oc1cccc(C)c1 [metolcarb] | >0.02 | >0.1 | – | – | –
CNC(=O)Oc1cccc2c1OC(C)(C)C2O (centres unmarked) [3-hydroxy-carbofuran] | 0.00025 ± 5e-05 (≈ 0.00105 µM) | 0.00087 ± 6e-05 (≈ 0.00367 µM) | – | – | CR(%) (ic-ELISA) [3]: 110.1%; IC50 (ic-ELISA) [3]: 0.00069 ± 8e-05 µg/mL (≈ 0.00291 µM)
CNC(=O)O/N=C/C(C)(C)SC [aldicarb] | >0.02 | >0.1 | – | – | –
CNC(=O)Oc1ccccc1OC(C)C [propoxur] | – | – | 25.8 | 0.03475 (≈ 0.166 µM) | –
CNC(=O)Oc1ccccc1C(C)C [isoprocarb] | >0.02 | >0.1 | 50.7 | 0.01768 (≈ 0.0915 µM) | CR (%) (ELISA) (mAb 13C8 [1]; CR = IC50(carbofuran)/IC50(analogue) x 100%, optimized ELISA with mAb 13C8): <1%; CR (%) (QD-LFIA) (mAb 13C8 [2]; CR = IC50(carbofuran)/IC50(analogue) x 100%, QD-LFIA with mAb 13C8): <1%
CCCCN(CCCC)SN(C)C(=O)Oc1cccc2c1OC(C)(C)C2 [carbosulfan] | 0.00024 ± 4e-05 (≈ 0.000631 µM) | 0.00084 ± 9e-05 (≈ 0.00221 µM) | 7.7 | 0.1158 (≈ 0.304 µM) | Reactivity of mAb (I%) (mAb 18G3): 71%; Reactivity of mAb (I%) (mAb 13C8 [5]): 90%; Reactivity of mAb (I%) (mAb 12D6): 46%; Reactivity of mAb (I%) (mAb 12H5): 67%; Reactivity of mAb (I%) (mAb 6D6): 61%; Reactivity of mAb (I%) (mAb 7F9): 65%
CCOC(=O)CCN(SN(C)C(=O)Oc1cccc2c1OC(C)(C)C2)C(C)C [benfuracarb] | 0.00023 ± 3e-05 (≈ 0.00056 µM) | 0.00081 ± 7e-05 (≈ 0.00197 µM) | – | – | Reactivity of mAb (I%) (mAb 18G3): 76%; Reactivity of mAb (I%) (mAb 13C8 [5]): 91%; Reactivity of mAb (I%) (mAb 12D6): 55%; Reactivity of mAb (I%) (mAb 12H5): 70%; Reactivity of mAb (I%) (mAb 6D6): 53%; Reactivity of mAb (I%) (mAb 7F9): 68%
CNC(=O)Oc1cccc2ccccc12 [carbaryl] | >0.02 | >0.1 | 8.5 | 0.10559 (≈ 0.525 µM) | –
